According to patent US4863925A, “Cyclohexanedione derivative for hepatic disorders and a process for producing the same” (Nihon Nohyaku Co., Ltd., priority 1986, dated 1989):

Tested on: hepatic disorder caused by carbon tetrachloride
Assay: Effect of suppressing hepatic disorder caused by carbon tetrachloride (Test Example 1)
Type: in vivo, mice (dd-strain, male)
Set-up: key to Liver injury index: 0 = healthy, 2 = slight, 4 = evident injury, 6 = serious injury
Settings: 30 mg/kg p.o., 6 h before CCl4 0.05 ml/kg p.o., 24 h after CCl4, mean of five mice; for Liver injury index: 0 healthy, 2 slightly affected, 4 evidently observed injury, 6 serious injury; for P-GPT (plasma glutamic pyruvic transaminase activity): Reitman-Frankel, 2,000 or higher calculated as 2,000
Protocol: Effect of suppressing hepatic disorder caused by carbon tetrachloride. […] The animals were sacrificed 24 hours after the administration of carbon tetrachloride, and the extent of liver injury was examined. On the other hand, blood was collected from the animal at the time of the sacrifice, and centrifuged to obtain plasma. The plasma glutamic pyruvic transminase (GPT) activity was determined according to the method of Reitman-Frankel. The activity was expressed in terms of Karmen Units (K.U.). The conditions of the liver were expressed in terms of liver injury index as follows. |Liver injury index | Condition of liver |0 Healthy liver |2 Slightly affected |4 Evidently observed injury |6 Serious injury Mice were used in groups of five of test were represented by the mean value. When the GPT activity was 2,000 units or higher, or further determination was made, the activity was calculated as 2,000 units for reasons of convenience.

SMILES | Liver injury index | P-GPT (plasma glutamic pyruvic transaminase activity)
CN1CCN(C)C2(C)SC(=C3C(=O)CC(C)(C)CC3=O)SC12 (centres unmarked) [compound 12, 2-[1,2,5-trimethyl-2,5-diaza-7,9-dithiabicyclo(4.3.0)-nonane-8-ylidene]-5,5-dimethyl-1,3-cyclohexanedione] | 0.4 | 33 K.U.
CCCN1CCN(CCC)C2SC(=C3C(=O)CC(c4ccccc4)C(C(=O)OCC)C3=O)SC21 (centres unmarked) [compound 114] | 2.2 | 26 K.U.
CN1CCN(C)C2SC(=C3C(=O)CC(c4ccc(F)cc4)CC3=O)SC21 (centres unmarked) [compound 36] | 1.5 | 268 K.U.
CCOc1ccc(C2CC(=O)C(=C3SC4C(S3)N(CC)CCN4CC)C(=O)C2)cc1 (centres unmarked) [compound 61] | 1.5 | 494 K.U.
CCOC(=O)C1C(=O)C(=C2SC3C(S2)N(C)CCN3C)C(=O)CC1c1ccc(OCC)cc1 (centres unmarked) [compound 115] | 0 | 39 K.U.
CN1CCNC2SC(=C3C(=O)CC(c4ccco4)CC3=O)SC21 (centres unmarked) [compound 108] | 1.0 | 24 K.U.
CC1CC(=O)C(=C2SC3C(S2)N(C)CCN3C)C(=O)C1 (centres unmarked) [compound 18] | 1.2 | 22 K.U.
C=CCN1CCN(CC=C)C2(C)SC(=C3C(=O)CC(C)(C)CC3=O)SC12 (centres unmarked) [compound 106] | 1.2 | 242 K.U.
CN1CCNC2SC(=C3C(=O)CC(c4cccs4)CC3=O)SC21 (centres unmarked) [compound 109] | 0 | 17 K.U.
COc1ccc(C2CC(=O)C(=C3SC4C(S3)N(C)CCN4C)C(=O)C2)cc1 (centres unmarked) [compound 122] | 1.5 | 231 K.U.
CCOC(=O)C1C(=O)C(=C2SC3C(S2)N(C)CCN3C)C(=O)CC1c1ccccc1Cl (centres unmarked) [compound 104] | 1.7 | 345 K.U.
CN1CCN(C)C2SC(=C3C(=O)CC(C4CCCCC4)CC3=O)SC21 (centres unmarked) [compound 80] | 1.0 | 405 K.U.
CCCN1CCN(CCC)C2SC(=C3C(=O)CCCC3=O)SC21 (centres unmarked) [compound 10] | 0 | 41 K.U.
CCCN1CCN(CCC)C2SC(=C3C(=O)CC(c4ccc(OC)cc4)CC3=O)SC21 (centres unmarked) [compound 57] | 0.2 | 142 K.U.
Cc1ccc(C2CC(=O)C(=C3SC4C(S3)N(C)CCN4C)C(=O)C2)cc1 (centres unmarked) [Compound No. 43] | 0.2 | 24 K.U.
CN1CCN(C)C2SC(=C3C(=O)CC(c4ccccc4Cl)CC3=O)SC21 (centres unmarked) [compound 32] | 0.3 | 22 K.U.
CCOC(=O)C1C(=O)C(=C2SC3C(S2)N(C)CCN3C)C(=O)CC1c1ccc(C)cc1 (centres unmarked) [compound 102] | 1.5 | 319 K.U.
CCOc1ccc(C2CC(=O)C(=C3SC4C(S3)N(C)CCN4C)C(=O)C2)cc1 (centres unmarked) [compound 60] | 0.1 | 26 K.U.
CCOc1ccc(C2CC(=O)C(=C3SC4N(C)CCN(C)C4(C)S3)C(=O)C2)cc1 (centres unmarked) [compound 63] | 0 | 15 K.U.
COc1ccc(C2CC(=O)C(=C3SC4NCCNC4S3)C(=O)C2)cc1 (centres unmarked) [Compound No. 53] | 0.1 | 13 K.U.
COc1cccc(C2CC(=O)C(=C3SC4C(S3)N(C)CCN4C)C(=O)C2)c1 (centres unmarked) [compound 52] | 0.1 | 14 K.U.
CN1CCNC2SC(=C3C(=O)CC(C)(C)CC3=O)SC21.Cl.Cl (centres unmarked) [compound 118, 2-[2-methyl-2,5-diaza-7,9-dithiabicyclo-(4,3,0)-nonane-8-ylidene]-5,5-dimethyl-1,3-cyclohexanedione dihydrochloride salt] | 0 | 32 K.U.
CCN1CCN(CC)C2SC(=C3C(=O)CC(C)(C)CC3=O)SC21 (centres unmarked) [compound 6] | 0 | 19 K.U.
CN1CCN(C)C2SC(=C3C(=O)CCCC3=O)SC21 (centres unmarked) [compound 1] | 0.2 | 14 K.U.
COc1ccc(C2CC(=O)C(=C3SC4NCCNC4(C)S3)C(=O)C2)cc1 (centres unmarked) [compound 92] | 0.4 | 15 K.U.

SMILES | Liver injury index | P-GPT (plasma glutamic pyruvic transaminase activity)
CN1CCN(C)C2SC(=C3C(=O)CC(c4cccs4)CC3=O)SC21 (centres unmarked) [compound 82, 2-[2,5-dimethyl-2,5-diaza-7,9-dithiabicyclo-(4.3.0)-nonane-8-ylidene]-5-(2-thienyl)-1,3-cyclo hexanedione] | 0.3 | 16 K.U.
COc1ccc(C2CC(=O)C(=C3SC4N(C)CCN(C)C4(C)S3)C(=O)C2)cc1 (centres unmarked) [compound 59] | 0.1 | 16 K.U.
CCCN1CCN(CCC)C2SC(=C3C(=O)CC(C)(C)CC3=O)SC21 (centres unmarked) [Compound No. 7] | 0 | 16 K.U.
CCC1CCC(=O)C(=C2SC3C(S2)N(C)CCN3C)C1=O (centres unmarked) [compound 25] | 0.8 | 15 K.U.
COc1ccc(C2CC(=O)C(=C3SC4C(S3)N(C)CCN4C)C(=O)C2)cc1OC (centres unmarked) [compound 65] | 1.6 | 347 K.U.
Cc1ccc(C2CC(=O)C(=C3SC4NCC(C)NC4S3)C(=O)C2)cc1 (centres unmarked) [compound 78] | 0.2 | 18 K.U.
Cc1cccc(C2CC(=O)C(=C3SC4C(S3)N(C)CCN4C)C(=O)C2)c1 (centres unmarked) [compound 42] | 0 | 14 K.U.
CN1CCN(C)C2(C)SC(=C3C(=O)CCCC3=O)SC12 (centres unmarked) [compound 11] | 0.5 | 16 K.U.
CN1CCN(C)C2SC(=C3C(=O)CC(c4ccco4)CC3=O)SC21 (centres unmarked) [Compound No. 79] | 0 | 30 K.U.
CCOC(=O)C1C(=O)C(=C2SC3C(S2)N(C)CCN3C)C(=O)CC1c1ccc(OC)cc1 (centres unmarked) [compound 103] | 1.0 | 18 K.U.
CCCN1CCN(CCC)C2SC(=C3C(=O)CC(c4ccccc4)CC3=O)SC21 (centres unmarked) [compound 28] | 0.2 | 39 K.U.
CCc1ccc(C2CC(=O)C(=C3SC4C(S3)N(C)CCN4C)C(=O)C2)cc1 (centres unmarked) [compound 48] | 0.3 | 18 K.U.
CCC(C)C1CC(=O)C(=C2SC3C(S2)N(C)CCN3C)C(=O)C1 (centres unmarked) [compound 21] | 0.1 | 23 K.U.
CN1CCN(C)C2(C)SC(=C3C(=O)CC(c4cccs4)CC3=O)SC12 (centres unmarked) [compound 105] | 0 | 15 K.U.
CN1CCN(C)C2SC(=C3C(=O)CC(c4ccccc4)CC3=O)SC21 (centres unmarked) [compound 26, 2-[2,5-dimethyl-2,5-diaza-7,9-dithiabicyclo(4,3, 0)-nonane-8-ylidene]-5-phenyl-1,3-cyclohexanedione] | 0 | 12 K.U.
CN1CCN(C)C2(C)SC(=C3C(=O)CC(c4ccco4)CC3=O)SC12 (centres unmarked) [compound 90] | 0 | 15 K.U.
COc1ccccc1C1CC(=O)C(=C2SC3C(S2)N(C)CCN3C)C(=O)C1 (centres unmarked) [compound 51] | 0 | 81 K.U.
CN1CCNC2SC(=C3C(=O)CC(c4ccccc4Cl)CC3=O)SC21 (centres unmarked) [compound 121] | 0 | 20 K.U.
CC1(C)CC(=O)C(=C2SC3NCCNC3(C)S2)C(=O)C1 (centres unmarked) [compound 111] | 1.0 | 14 K.U.
Cc1ccc(C2CC(=O)C(=C3SC4N(C)CCN(C)C4(C)S3)C(=O)C2)cc1 (centres unmarked) [compound 47] | 0 | 24 K.U.
CCN1CCN(CC)C2SC(=C3C(=O)CCCC3=O)SC21 (centres unmarked) [Compound No. 2] | 0.4 | 15 K.U.
CC1CNC2SC(=C3C(=O)CC(C)(C)CC3=O)SC2N1 (centres unmarked) [compound 14, 2-[3-methyl-2,5-diaza-7,9-dithiabicyclo-(4.3.0)-nonane-8-ylidene]-5,5-dimethyl-1,3-cyclohexanedione] | 0.4 | 18 K.U.
Cc1ccccc1C1CC(=O)C(=C2SC3C(S2)N(C)CCN3C)C(=O)C1 (centres unmarked) [compound 41] | 0.4 | 213 K.U.
CCN1CCN(CC)C2SC(=C3C(=O)CC(c4ccc(OC)cc4)CC3=O)SC21 (centres unmarked) [compound 56] | 2.5 | 50 K.U.
